Reference: patent US6458384B2, “Pharmaceutical with predetermined activity profile” (priority 2000, dated 2002)

Legend:
[1] = Release According to USP (USP Paddle, 50 rpm), 0.1 N HCl then phosphate buffer pH 6.8; format: physicochemical; conditions: 0.1 N HCl 0-120 min, phosphate buffer pH 6.8 >120 min, 37° C.
Method: The term “release profile” refers to the pattern of release of the respective pharmacologically active substance over time, that is, the amount released over time. This may be measured either in vivo, e.g. indirectly by measuring the blood concentration, or preferably ex vivo, e.g. by the USP paddle method that allows for determination of the dissolution rate of the substance. […] Samples are withdrawn for determination of the amount of substance released in intervals of e.g. 30 or 60 min an analysed, e.g. spectrophotometrically, for example at 272 nm for caffeine, and/or using HPLC methods. A preferred method is described in the examples that may be used in analogy for other pharmaceuticals according to the invention. Preferred methods for analyzing blood or plasma levels of compounds are also described in the examples—analogous methods can be used for different active substances and are known int the art or easily derivable from the art. Where not indicated otherwise, percentages or other relative indications of amounts are given on a weight by weight (w:w) basis. The dissolution rate determination using the USP paddle apparatus has already been described above. The attrition rate of tablet cores for subsequent film-coating is preferably determined under standard conditions in a friabilator. The rate of attrition, i.e. the friability, is calculated. […] The crushing strength of tablets is determined in a tablet hardness tester (N=10). [table] [table] [table]

[2] = USP paddle test in phosphate buffer pH 6.8 of ethylcellulose-coated caffeine tablets; format: physicochemical
Method: The term “release profile” refers to the pattern of release of the respective pharmacologically active substance over time, that is, the amount released over time. This may be measured either in vivo, e.g. indirectly by measuring the blood concentration, or preferably ex vivo, e.g. by the USP paddle method that allows for determination of the dissolution rate of the substance. For example, a USP paddle apparatus operating at 37° C. and 50 rpm ist used and the preparations are tested in (e.g. 900 ml) artificial intestinal fluid, e.g. phosphate buffer pH 6.8; artificial gastric juice, e.g. 0.1 N HCl; or water. Samples are withdrawn for determination of the amount of substance released in intervals of e.g. 30 or 60 min an analysed, e.g. spectrophotometrically, for example at 272 nm for caffeine, and/or using HPLC methods.

For `Cn1c(=O)c2c(ncn2C)n(C)c1=O` [Caffeine], the “Accumulated rel, Time (min) 15” value ([1]; Example 1 sachet formulation, 15 min) was 0.0%, the “Accumulated rel, Time (min) 30” value ([1]; Example 1 sachet formulation, 30 min) was 0.0% and the “Accumulated rel, Time (min) 60” value ([1]; Example 1 sachet formulation, 60 min) was 0.0%. The “Accumulated rel, Time (min) 120” value ([1]; Example 1 sachet formulation, 120 min) was 0.0%, the “Accumulated rel, Time (min) 180” value ([1]; Example 1 sachet formulation, 180 min) was 0.0% and the “Accumulated rel, Time (min) 240” value ([1]; Example 1 sachet formulation, 240 min) was 0.0%. For the same compound, the “Accumulated rel, Time (min) 300” value ([1]; Example 1 sachet formulation, 300 min) was 0.0%, the “Accumulated rel, Time (min) 330” value ([1]; Example 1 sachet formulation, 330 min) was 87.0% and the “Accumulated rel, Time (min) 360” value ([1]; Example 1 sachet formulation, 360 min) was 99.0%. For the same compound, the “Accumulated rel, Time (min) 420” value ([1]; Example 1 sachet formulation, 420 min) was 99.5%, the “Accumulated rel, Time (min) 15” value ([1]; Example 2 tablet formulation, 15 min) was 0.0% and the “Accumulated rel, Time (min) 30” value ([1]; Example 2 tablet formulation, 30 min) was 0.0%. The “Accumulated rel, Time (min) 60” value ([1]; Example 2 tablet formulation, 60 min) was 0.0%, the “Accumulated rel, Time (min) 120” value ([1]; Example 2 tablet formulation, 120 min) was 0.0% and the “Accumulated rel, Time (min) 180” value ([1]; Example 2 tablet formulation, 180 min) was 0.0%. The “Accumulated rel, Time (min) 240” value ([1]; Example 2 tablet formulation, 240 min) was 0.0%, the “Accumulated rel, Time (min) 300” value ([1]; Example 2 tablet formulation, 300 min) was 15.0% and the “Accumulated rel, Time (min) 330” value ([1]; Example 2 tablet formulation, 330 min) was 89.3%. The “Accumulated rel, Time (min) 360” value ([1]; Example 2 tablet formulation, 360 min) was 99.5%, the “Accumulated rel, Time (min) 420” value ([1]; Example 2 tablet formulation, 420 min) was 99.7% and the “Accumulated release, Time (min) 15” value ([1]; Example 3 tablet formulation, 15 min) was 0.0%. The “Accumulated release, Time (min) 30” value ([1]; Example 3 tablet formulation, 30 min) was 0.0%, the “Accumulated release, Time (min) 60” value ([1]; Example 3 tablet formulation, 60 min) was 0.0% and the “Accumulated release, Time (min) 120” value ([1]; Example 3 tablet formulation, 120 min) was 0.0%. For the same compound, the “Accumulated release, Time (min) 180” value ([1]; Example 3 tablet formulation, 180 min) was 0.0%, the “Accumulated release, Time (min) 240” value ([1]; Example 3 tablet formulation, 240 min) was 0.0% and the “Accumulated release, Time (min) 300” value ([1]; Example 3 tablet formulation, 300 min) was 5.3%. The “Accumulated release, Time (min) 330” value ([1]; Example 3 tablet formulation, 330 min) was 85.6%, the “Accumulated release, Time (min) 360” value ([1]; Example 3 tablet formulation, 360 min) was 99.0% and the “Accumulated release, Time (min) 420” value ([1]; Example 3 tablet formulation, 420 min) was 99.2%. For the same compound, the “time for releasing the complete amount of caffeine after release starts” value ([2]; Example 5 ethylcellulose-coated tablets, phosphate buffer pH 6.8, 5 out of six tested tablets) was no more than 2 h and the “start of caffeine release after melatonin release” value ([2]; Example 5 test preparation: coated gelatine capsule with 6 caffeine tablets and 0.5 mg melatonin, stated from the properties of the tablets) was “approximately 420 min”.
